Measurements as given in publication PMC8000919, “Validation of an LC-MS/MS Method to Quantify the New TRPC6 Inhibitor SH045 (Larixyl N-methylcarbamate) and Its Application in an Exploratory Pharmacokinetic Study in Mice” (Pharmaceuticals, 2021).
Where two headings read alike, the source gives them in different places.

Assays:
[1] = Exploratory plasma pharmacokinetics in mice after single i.p. administration, non-compartmental analysis; type: in vivo
Procedure: The practicability of the validated method for SH045 quantification was verified in a first exploratory pharmacokinetic study in mice. Male C57BL/6 mice (25–30 g body weight, Charles River, Sulzfeld, Germany) were housed in groups under standard conditions, allowed access to lab chow and water ad libitum. Animal experiments were performed according to the national regulations of animal welfare and were ethically approved by the local committee on animal welfare and the local authorities. Animal experiments were performed under strict consideration of the 3R principles (replace, reduce, refine), fully complying with the ARRIVE guidelines.
Solutions of SH045 for i.p. administration were prepared with DMSO (final concentration 0.5%) and Kolliphor® EL (5% in water). SH045 was administered i.p. as a single dose of 20 mg/kg body weight. Blood was collected from mice tail vein at 5, 15, 30, 60, 120, 180 and 360 min after administration via heparinized catheters. After centrifugation at 4000× g at 4 °C for 10 min, plasma was stored at −80 °C until analysis.
For sample preparation, 20 µL of thawed plasma were mixed with 2 µL of IS (50 µg/mL), vortexed for 30 s, added with 178 µL ice-cold ACN and shaken vigorously for 5 min. After centrifugation at 104,000× g for 15 min, the supernatant was filtered through a 0.2 µm pore-size syringe filter (Phenex-RC 4 mm, Phenomenex, Aschaffenburg, Germany) and stored in the autosampler at 6 °C until analysis by LC-MS/MS, as mentioned above.
The evaluation of basic pharmacokinetic parameters of SH045 (20 mg/kg, i.p.) following a single dose was performed by non-compartmental analysis using a commercially available software program Kinetica, version 5.1 (Thermo Fisher Scientific, Waltham, MA, USA). The Cmax and Tmax were obtained directly from the plasma concentration-time curve. The slope of the terminal phase of the SH045 concentration profile (ʎz) was estimated as absolute values from >4 data points using a log-linear regression analysis.
The area under the plasma concentration-time curve (AUC) for the time (t) providing the final measurable concentration (AUClast) was calculated using the log-linear trapezoidal rule.
The AUC0–∞ was then determined as AUClast + Clast/ʎz, where Clast is the last measurable concentration. The systemic total body clearance from plasma (CLp) was calculated as applied dose divided by AUC0–∞. MRT was calculated as AUMC0–∞/AUC0–∞, where area under the first-moment curve (AUMC) was defined as area under the curve of the product of time and the plasma drug concentration versus time from zero to infinity.
The volume of distribution, VZ, was calculated as CLp/ʎz. Finally, the AUCextra extrapolates the AUC from the last measured time point to infinity.

[2] = Plasma protein binding (PPB) by ultrafiltration; type: in vitro ADME; settings: mouse plasma
Procedure: PPB of SH045 in mice plasma was determined at two concentrations, 100 and 800 ng/mL, using ultrafiltration. For that, 2 µL of working solutions of SH045 in DMSO (final concentration […]) were mixed with 298 µL blank plasma and incubated at 37 °C for 30 min. To determine the total concentration of SH045, 60 µL sample were taken out. The remaining 240 µL of spiked plasma were transferred to a centrifugal filter (Centrifugal Filter Units, 30 kDa cut-off, Millipore, County Cork, Ireland) and centrifuged at room temperature for 10 min at 1000× g. The filtrates were analyzed for the unbound SH045. The PPB was calculated as PPB (%) = (Ct − Cf)/Ct × 100, with Ct as total SH045 concentration in spiked plasma and Cf as unbound SH045 concentration in the filtrate.

[3] = Stability in stock and working solutions; type: physicochemical; settings: nominal 1000 ng/mL
Procedure: Analytic stock solutions of SH045 and of IS (1 mg/mL each) were prepared in ACN and stored at −20 °C. Working solutions of SH045 and of IS (50 µg/mL) were freshly prepared by dilution with water/ACN 1:1 (v/v). Calibration and QC samples were prepared by addition of 2 μL SH045 working solutions and 2 μL IS solution to 18 μL of blank plasma, further processed identically to the preparation of plasma (see below). Freshly prepared calibration samples for SH045 in plasma comprised eight concentration levels analyzed in duplicates (2, 5, 10, 100, 200, 800, 1200 and 1600 ng/mL).
The stability of SH045 and IS in stock solutions stored at −20 °C for 28 days and in working solutions stored at 4 °C for 12 h was determined comparing the analyzed with the nominal concentration and accepted when accuracy was within 15%.

[4] = Stability in plasma QC samples under storage conditions; type: physicochemical, mice; settings: for Stability in autosampler, Accuracy / Stability in autosampler, Mean ± SEM: extracted plasma QC samples, 6 °C; for Stability in autosampler, Accuracy / Stability in autosampler, Mean ± SEM / Freeze and thaw stability, Accuracy / Freeze and thaw stability, Mean ± SEM: 12 h; for Short-term stability, Accuracy / Short-term stability, Mean ± SEM / Freeze and thaw stability, Accuracy / Freeze and thaw stability, Mean ± SEM / Long-term stability, Accuracy / Long-term stability, Mean ± SEM: plasma QC samples; for Short-term stability, Accuracy / Short-term stability, Mean ± SEM: 25 °C, 4 h; for Freeze and thaw stability, Accuracy / Freeze and thaw stability, Mean ± SEM / Long-term stability, Accuracy / Long-term stability, Mean ± SEM: −20 °C; for Freeze and thaw stability, Accuracy / Freeze and thaw stability, Mean ± SEM: 3 cycles; for Long-term stability, Accuracy / Long-term stability, Mean ± SEM: 30 days
Procedure: […] The accuracy of the mean concentration at each of the three QC levels was accepted within ±15% of nominal concentration. All stability experiments were carried out in three replicates.

TRPC6 [5] = test system: TRPC6; parameters: method as in PMID 29522264; settings: patch-clamp recordings; read-out: IC50 to block inward currents; cited from earlier work
TRPC6 [6] = test system: TRPC6; parameters: method as in PMID 29522264; settings: stably TRPC6-transfected HEK293 cells; read-out: IC50 to inhibit Ca2+ influx; cited from earlier work
TRPC3 = test system: TRPC3; parameters: method as in PMID 29522264; settings: TRPC6 over TRPC3; cited from earlier work
[7] = test system: TRPC3/6 channels of rat PASMC; parameters: method as in PMID 29522264; settings: 1-oleyl-2-acetyl-sn-glycerol (OAG)-induced; cited from earlier work
[8] = test system: ischemic lungs explanted from mice; parameters: method as in PMID 29522264; settings: ex vivo model of LIRE; cited from earlier work
[9] = male, C57BL/6, mouse, ip, mice plasma, single dose 20 mg/kg body weight
[10] = stock solution, −20 °C, 28 days

plasma concentration relative to IC50 for Ca2+ influx ([1]; five hours after administration of 20 mg/kg): at least two-fold higher
AUC(0-inf) [1, 9]: 1.47 µg·h/mL
AUC(0-t) [1, 9]: 1.41 µg·h/mL
Cmax [1, 9]: 0.756 µg/mL
MRT [1, 9]: 1.9 h
Tmax [1, 9]: 0.5 h
half-life ([1]; male, C57BL/6, mouse, plasma, ip, 20 mg/kg, mice plasma, single dose 20 mg/kg body weight): 1.3 h
T1/2 ([1]; mice plasma, single dose 20 mg/kg body weight, i.p., 20 mg/kg): 1.31 h
% AUC (AUCextra as percent) ([1]; mice plasma, single dose 20 mg/kg i.p., extrapolated part of AUC): 4.3%
fraction unbound at 30 min, 100 ng/mL ([2]; 100 ng/mL SH045, ultrafiltration): 0.022
fraction unbound at 30 min, 800 ng/mL ([2]; 800 ng/mL SH045, ultrafiltration): 0.003
Stability, Accuracy [3, 10]: 106.6%
Stability, Mean ± SEM [3, 10]: 1066 ± 9 ng/mL
Stability, Accuracy ([3]; working solution, 4 °C, 12 h): 103.7%
Stability, Mean ± SEM ([3]; working solution, 4 °C, 12 h): 1037 ± 10 ng/mL
Stability in autosampler, Accuracy ([4]; nominal 5 ng/mL): 99.0%
Stability in autosampler, Mean ± SEM ([4]; nominal 5 ng/mL): 5.0 ± 0.2 ng/mL
Stability in autosampler, Accuracy ([4]; nominal 800 ng/mL): 100.8%
Stability in autosampler, Mean ± SEM ([4]; nominal 800 ng/mL): 807 ± 28 ng/mL
Stability in autosampler, Accuracy ([4]; nominal 1200 ng/mL): 104.7%
Stability in autosampler, Mean ± SEM ([4]; nominal 1200 ng/mL): 1256 ± 50 ng/mL
Short-term stability, Accuracy ([4]; nominal 5 ng/mL): 107.6%
Short-term stability, Mean ± SEM ([4]; nominal 5 ng/mL): 5.4 ± 0.1 ng/mL
Short-term stability, Accuracy ([4]; nominal 800 ng/mL): 101.9%
Short-term stability, Mean ± SEM ([4]; nominal 800 ng/mL): 816 ± 2 ng/mL
Short-term stability, Accuracy ([4]; nominal 1200 ng/mL): 98.8%
Short-term stability, Mean ± SEM ([4]; nominal 1200 ng/mL): 1186 ± 36 ng/mL
Freeze and thaw stability, Accuracy ([4]; nominal 5 ng/mL): 97.2%
Freeze and thaw stability, Mean ± SEM ([4]; nominal 5 ng/mL): 4.9 ± 0.2 ng/mL
Freeze and thaw stability, Accuracy ([4]; nominal 800 ng/mL): 90.1%
Freeze and thaw stability, Mean ± SEM ([4]; nominal 800 ng/mL): 721 ± 8 ng/mL
Freeze and thaw stability, Accuracy ([4]; nominal 1200 ng/mL): 90.2%
Freeze and thaw stability, Mean ± SEM ([4]; nominal 1200 ng/mL): 1083 ± 41 ng/mL
Long-term stability, Accuracy ([4]; nominal 5 ng/mL): 107.3%
Long-term stability, Mean ± SEM ([4]; nominal 5 ng/mL): 5.4 ± 0.3 ng/mL
Long-term stability, Accuracy ([4]; nominal 800 ng/mL): 95.4%
Long-term stability, Mean ± SEM ([4]; nominal 800 ng/mL): 763 ± 9 ng/mL
Long-term stability, Accuracy ([4]; nominal 1200 ng/mL): 99.9%
Long-term stability, Mean ± SEM ([4]; nominal 1200 ng/mL): 1199 ± 29 ng/mL
Structure (SMILES): C=C[C@@](C)(O)CC[C@H]1C(=C)C[C@H](OC(=O)NC)[C@H]2C(C)(C)CCC[C@]12C [SH045, (1S,4S,4aR,8aS)-4-((S)-3-Hydroxy-3-methylpent-4-en-1-yl)-4a,8,8-trimethyl-3-methylenedecahydronaphthalen-1-yl methylcarbamate]
IC50 (TRPC6 [5]): 0.0058 µM
IC50 (TRPC6 [6]): 0.063 µM
subtype selectivity over TRPC3 (TRPC3): 13 fold
effect on OAG-induced Ca2+ entry [7]: inhibited
edema formation after reperfusion [8]: reduced edema formation
